Measurements: patent US20180099950A1, “APOPTOSIS SIGNAL-REGULATING KINASE INHIBITOR” (Gilead Sciences, Inc., priority 2012, published 2018)
Where two headings read alike, the source gives them in different places.

How the values were obtained:
CYP3A4 = target: T1, CYP3A4 (Homo sapiens, UniProt P08684); assay: Cytochrome P450 inhibition, CYP3A4 (midazolam and testosterone); assay type: in vitro ADME
T1 construct: from tissue; host or cells: human liver microsomes

[1] = Determination of percent of compound bound to plasma (equilibrium dialysis); assay type: in vitro ADME; settings: human
Source text: Sample vials were weighed and recorded.

[2] = Rat pharmacokinetics, 1 mg/kg IV infusion and 5.0 mg/kg PO; assay type: in vivo
Procedure: Pharmacokinetics of Test Compounds following a 1 mg/kg IV infusion and 5.0 mg/kg PO dose in rats
For IV administration the test compound was formulated in 60:40 PEG 400:water with 1 equivalent HCl at 0.5 mg/mL. […] For PO (oral) administration, the test compound was formulated in 5/75/10/10 ethanol/PG/solutol/water at 2.5 mg/mL.
IV and PO dosing groups each consisted of 3 male SD rats. […] The animals were fasted overnight prior to dose administration and up to 4 hr after dosing.
For the IV infusion group, the test compound was administered by intravenous infusion over 30 minutes. The rate of infusion was adjusted according to the body weight of each animal to deliver a dose of 1 mg/kg at 2 mL/kg. For the oral dosing group, the test article was administered by oral gavage at 2 mL/kg for a dose of 5.0 mg/kg.
Serial venous blood samples (approximately 0.4 mL each) were taken at specified time points after dosing from each animal. The blood samples were collected into Vacutainer™ tubes (Becton-Disckinson Corp, N.J., USA) containing EDTA as the anti-coagulant and were immediately placed on wet ice pending centrifugation for plasma.
An LC/MS/MS method was used to measure the concentration of test compound in plasma.
Non-compartmental pharmacokinetic analysis was performed on the plasma concentration-time data.

[3] = pH 7.4, fraction unbound, comparative table, read-out: fu

T1 sequence (P08684 whole entry): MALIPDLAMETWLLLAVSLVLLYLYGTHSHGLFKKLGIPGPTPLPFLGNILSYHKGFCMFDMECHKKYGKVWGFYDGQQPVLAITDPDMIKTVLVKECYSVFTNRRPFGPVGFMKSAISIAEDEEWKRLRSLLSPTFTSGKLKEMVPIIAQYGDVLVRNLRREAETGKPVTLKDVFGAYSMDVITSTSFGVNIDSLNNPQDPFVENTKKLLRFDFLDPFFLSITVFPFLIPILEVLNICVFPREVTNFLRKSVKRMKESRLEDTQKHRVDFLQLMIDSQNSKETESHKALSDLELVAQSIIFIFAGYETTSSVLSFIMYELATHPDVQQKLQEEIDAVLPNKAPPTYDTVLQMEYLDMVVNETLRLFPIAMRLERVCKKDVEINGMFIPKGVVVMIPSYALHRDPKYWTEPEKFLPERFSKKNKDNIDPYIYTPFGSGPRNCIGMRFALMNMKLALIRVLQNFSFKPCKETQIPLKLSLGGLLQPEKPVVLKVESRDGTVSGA

CYP3A4 IC50/PBAdj.EC50 value of compound of formula (I) higher than that of the named compound (CYP3A4) [times]	number of times the compound of formula (I) shows an improvement over the indicated compound: Cyp3A4 IC50 (TST) (CYP3A4)	fraction unbound at 3 h, 2 μM [1, 3]	number of times the compound of formula (I) shows an improvement over the indicated compound: % F in rats ([2]; rat, in vivo)	number of times the compound of formula (I) shows an improvement over the indicated compound: CL in rats ([2]; rat, in vivo)	number of times the compound of formula (I) shows an improvement over the indicated compound: Vss in rats ([2]; rat, in vivo)	number of times the compound of formula (I) shows an improvement over the indicated compound: t½ in rats ([2]; rat, in vivo)	t½ ([2]; rats) [h]	IC50 (CYP3A4; testosterone substrate, comparative table, read-out: Cyp3A4 IC50 Testesterone (TST))) [µM]	clearance ([2]; male, SD, rat, plasma, intravenous, 1 mg/kg, rats) [mL/min/kg]	Vd ([2]; male, SD, rat, plasma, intravenous, 1 mg/kg, rats, read-out: Vss) [L/kg]	bioavailability ([2]; male, SD, rat, plasma, rats, 5.0 mg/kg PO, read-out: oral bioavailability (% F)) [%]	half-life ([2]; male, SD, rat, plasma, rats, read-out: t½ (converted)) [h]	fraction unbound at 3 h, 2 μM ([1]; pH 7.4, human plasma, 2 uM, 3 hours at 37 C, read-out: percent unbound)	Structure (SMILES)
43	(10X)	0.048	(6.8X)	(2.7X)	(3.2X)	(8.6X)	0.59	–	–	–	–	–	–	CC(C)n1cnnc1-c1cccc(NC(=O)c2cccc(-n3cnc(C4CC4)c3)c2)n1 [Compound A]
92	(2.8X)	0.032	(1.5X)	(3.6X)	–	(3.9X)	–	4	6.5	0.54	50	1.3	–	Cc1ccc(C(=O)Nc2cccc(-c3nncn3C(C)C)n2)cc1-n1cnc(C2CC2)c1 [Compound B]
–	–	0.12	–	–	–	–	–	–	–	–	–	–	0.119	Cc1cc(F)c(C(=O)Nc2cccc(-c3nncn3C(C)C)n2)cc1-n1cnc(C2CC2)c1 [compound of formula (I), 5-(4-cyclopropyl-1H-imidazol-1-yl)—N-(6-(4-isopropyl-4H-1,2,4-triazol-3-yl)pyridin-2-yl)-2-fluoro-4-methylbenzamide]
